For orientation: Ki means the dissociation constant of the complex between target and ligand, obtained from inhibition or displacement. The term solubility denotes the dissolved amount per volume that the medium holds. Lower therefore signals a poorly soluble substance.

The target of data set [1] is T1, Synaptic vesicular amine transporter (Rattus norvegicus, UniProt Q01827). Description: Inhibition of VMAT2-mediated [3H]dopamine uptake in rat synaptic vesicle membranes. Type of data set: cell membranes, Membrane.
T1 sequence (Q01827 whole entry): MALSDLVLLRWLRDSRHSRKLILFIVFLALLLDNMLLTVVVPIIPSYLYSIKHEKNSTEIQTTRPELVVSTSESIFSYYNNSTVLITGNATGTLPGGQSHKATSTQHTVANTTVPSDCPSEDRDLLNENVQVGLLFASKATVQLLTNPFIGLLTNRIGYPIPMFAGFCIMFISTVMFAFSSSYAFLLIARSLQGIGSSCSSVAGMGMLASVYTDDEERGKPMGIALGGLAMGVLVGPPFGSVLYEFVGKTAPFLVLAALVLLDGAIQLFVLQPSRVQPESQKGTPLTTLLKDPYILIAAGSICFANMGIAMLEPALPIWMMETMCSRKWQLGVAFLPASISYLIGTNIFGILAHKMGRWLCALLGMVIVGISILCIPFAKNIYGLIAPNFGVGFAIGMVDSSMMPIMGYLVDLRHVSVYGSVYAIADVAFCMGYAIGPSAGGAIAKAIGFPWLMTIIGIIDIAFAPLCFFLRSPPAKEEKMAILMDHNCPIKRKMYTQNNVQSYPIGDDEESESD
In data set [2] the target is T1, Synaptic vesicular amine transporter. As to the kind of experiment: Displacement of [3H]DTBZ from VMAT2 in rat synaptic vesicle membranes after 30 mins by liquid scintillation counting. The data set is classed as cell membranes, Membrane. (In general: Displacement assays read how much labelled ligand stays bound in the presence of the test substance.)
The nature of data set [3]: Aqueous solubility in water. The data set is classed as physicochemical.

On to `CN1[C@@H](CCc2ccncc2)CCC[C@H]1CCc1ccncc1`, for which the Ki was determined as 5.23 µM in data set [1] and 5.87 µM in data set [2].

`CN1[C@@H](CCc2cccnc2)CCC[C@H]1CCc1cccnc1`: the results for the Ki in data set [1] and in data set [2] were 3.72 µM and 33.3 µM, respectively.

`CN1[C@@H](CCc2ccccc2)CCC[C@H]1CCc1ccccc1.O=S(=O)(O)O`: the solubility in data set [3] was determined as 300 µg/mL.

As to `CN1[C@@H](CCc2c[nH]c3ccccc23)CCC[C@H]1CCc1c[nH]c2ccccc12`, the values for the Ki in data set [1] and in data set [2] were 2.13 µM and 26 µM, respectively.

Turning to `CN1[C@@H](CCc2ccnc3ccccc23)CCC[C@H]1CCc1ccnc2ccccc12.Cl` [QUINLOBELANE], the Ki in data set [1] came to 0.051 µM; in data set [2], 2.64 µM. The solubility in data set [3] was no less than 20000 µg/mL.

`CN1[C@@H](CCc2ccc3ccccc3n2)CCC[C@H]1CCc1ccc2ccccc2n1`: the Ki in data set [1] was 0.067 µM; in data set [2], 0.96 µM.

For the origin of these results see ChEMBL document CHEMBL1158628, “Quinlobelane: a water-soluble lobelane analogue and inhibitor of VMAT2” (Bioorg Med Chem Lett, 2010).
